Assay results: US20230089073A1 (Carmot Therapeutics, Inc., priority 2021, published 2023)

What follows are molecules tested against T1, human GLP-1 receptor (Homo sapiens, UniProt P43220) (assay: GLP-1R cAMP Assay). Details: cAMP accumulation in CHO cells stably overexpressing the human GLP-1 receptor; 30 min treatment; HitHunter cAMP kit; read-out: EC50.
T1 construct: expressed in transfected cells
Type: cell-based
In short: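 CHO cells stably overexpressing human GLP-1R, 10,000 cells/well, treated with compound in 20-point dose response in triplicate for 30 min. cAMP accumulation read by enzyme-complementation luminescence after lysis and overnight incubation; dose-response curves fitted.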

T1 sequence (P43220 24-463): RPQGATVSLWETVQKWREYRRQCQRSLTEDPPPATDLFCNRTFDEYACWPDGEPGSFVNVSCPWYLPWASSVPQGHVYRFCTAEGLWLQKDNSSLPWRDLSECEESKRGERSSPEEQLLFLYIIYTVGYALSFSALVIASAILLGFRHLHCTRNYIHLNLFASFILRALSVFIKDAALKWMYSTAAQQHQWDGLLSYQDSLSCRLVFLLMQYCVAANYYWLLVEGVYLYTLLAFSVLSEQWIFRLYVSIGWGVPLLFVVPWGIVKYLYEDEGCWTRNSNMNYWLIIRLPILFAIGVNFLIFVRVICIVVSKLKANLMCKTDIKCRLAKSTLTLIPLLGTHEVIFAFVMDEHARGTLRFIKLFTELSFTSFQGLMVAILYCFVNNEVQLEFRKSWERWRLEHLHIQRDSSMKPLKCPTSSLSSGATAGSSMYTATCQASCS

Row | EC50 | Compound
1 | 50 to 500 nM | Cc1ccc(N(C)c2cccc(C(=O)N3CCN(Cc4nc5ccc(C(=O)O)cc5n4C[C@@H]4CCO4)CC3)c2)cc1 [Compound 29, 2-[(4-{3-[methyl(4-methylphenyl)amino]benzoyl}piperazin-1-yl)methyl]-1-{[(2S)-oxetan-2-yl]methyl}-1H-1,3-benzodiazole-6-carboxylic acid]
2 | 50 to 500 nM | Cc1ccc(N(C)c2cccc(OC3CCN(Cc4nc5ccc(C(=O)O)cc5n4C[C@@H]4CCO4)CC3)c2)c(Cl)c1 [Example 111, (S)-2-((4-(3-((2-Chloro-4-methylphenyl)(methyl)amino)phenoxy)piperidin-1-yl)methyl)-1-(oxetan-2-ylmethyl)-1H-benzo[d]imidazole-6-carboxylic acid]
3 | < 50 nM | O=C(O)c1ccc2nc(CN3CCC(Oc4ccnc(COc5ccc(Cl)cc5F)c4)CC3)n(Cc3ccno3)c2c1 [Compound 266, 2-{[4-({2-[(4-chloro-2-fluorophenoxy)methyl]pyridin-4-yl}oxy)piperidin-1-yl]methyl}-1-[(1,2-oxazol-5-yl)methyl]-1H-1,3-benzodiazole-6-carboxylic acid]
4 | < 50 nM | C[C@H]1C[C@@H](Oc2ccnc(COc3ccc(Cl)cc3Cl)c2)CCN1Cc1nc2ccc(C(=O)O)cc2n1C[C@@H]1CCO1 [Compound 283, 2-{[(2S,4S)-4-({2-[(2,4-dichlorophenoxy)methyl]pyridin-4-yl}oxy)-2-methylpiperidin-1-yl]methyl}-1-{[(2S)-oxetan-2-yl]methyl}-1H-1,3-benzodiazole-6-carboxylic acid]
5 | < 50 nM | N#Cc1cc(F)ccc1OCc1cc(OC2CCN(Cc3nc4ccc(C(=O)O)cc4n3C[C@@H]3CCO3)CC2)ccn1 [Compound 183, 2-{[4-({2-[(2-cyano-4-fluorophenoxy)methyl]pyridin-4-yl}oxy)piperidin-1-yl]methyl}-1-{[(2S)-oxetan-2-yl]methyl}-1H-1,3-benzodiazole-6-carboxylic acid]
6 | < 50 nM | CCn1cncc1Cn1c(CN2CCC(Oc3ccnc(COc4ccc(Cl)cc4C#N)c3)CC2(C)C)nc2ccc(C(=O)O)cc21 (centres unmarked) [Example 276, 2-((4-((2-((4-Chloro-2-cyanophenoxy)methyl)pyridin-4-yl)oxy)-2,2-dimethylpiperidin-1-yl)methyl)-1-((1-ethyl-1H-imidazol-5-yl)methyl)-1H-benzo[d]imidazole-6-carboxylic acid]
7 | 50 to 500 nM | Cc1ccc(N(C)c2cccc(CC3=CCN(Cc4nc5ccc(C(=O)O)cc5n4C[C@@H]4CCO4)CC3)c2)c(Cl)c1 [Compound 117, 2-{[4-({3-[(2-chloro-4-methylphenyl)(methyl)amino]phenyl}methyl)-1,2,3,6-tetrahydropyridin-1-yl]methyl}-1-{[(2S)-oxetan-2-yl]methyl}-1H-1,3-benzodiazole-6-carboxylic acid]
8 | 50 to 500 nM | O=C(O)c1ccc2nc(CN3CCC(Cc4cc(F)cc(COc5ccc(Cl)cc5Cl)c4)CC3)n(C[C@@H]3CCO3)c2c1 [Compound 126, 2-{[4-({3-[(2,4-dichlorophenoxy)methyl]-5-fluorophenyl}methyl)piperidin-1-yl]methyl}-1-{[(2S)-oxetan-2-yl]methyl}-1H-1,3-benzodiazole-6-carboxylic acid]
9 | < 50 nM | C[C@H]1C[C@@H](Oc2cccc(COc3ccc(Cl)cc3F)n2)CCN1Cc1nc2ccc(C(=O)O)cc2n1C[C@@H]1CCO1 [Compound 291, 2-{[(2S,4S)-4-({6-[(4-chloro-2-fluorophenoxy)methyl]pyridin-2-yl}oxy)-2-methylpiperidin-1-yl]methyl}-1-{[(2S)-oxetan-2-yl]methyl}-1H-1,3-benzodiazole-6-carboxylic acid]
10 | < 50 nM | N#Cc1ccc(OCc2cc(OC3CCN(Cc4nc5ccc(C(=O)O)nc5n4C[C@@H]4CCO4)CC3)ccn2)c(F)c1 [Compound 379]
11 | 50 to 500 nM | O=C(O)c1ccc2nc(CN3CCN(Cc4ccc(COc5ccc(Cl)cc5Cl)o4)CC3)n(C[C@@H]3CCO3)c2c1 [Compound 9, 2-{[4-({5-[(2,4-dichlorophenoxy)methyl]furan-2-yl}methyl)piperzin-1-yl]methyl}-1-{[(2S)-oxetan-2-yl]methyl}-1H-1,3-benzodiazole-6-carboxylic acid]
12 | 50 to 500 nM | O=C(O)c1ccc2nc(CN3CCN(C(=O)c4ccc(Cc5ccc(Cl)cc5Cl)o4)CC3)n(C[C@@H]3CCO3)c2c1 [Example 59, (S)-2-((4-(5-(2,4-Dichlorobenzyl)furan-2-carbonyl)piperazin-1-yl)methyl)-1-(oxetan-2-ylmethyl)-1H-benzo[d]imidazole-6-carboxylic acid]
13 | < 50 nM | N#Cc1ccc(OCc2cccc(OC3CCN(Cc4nc5c(F)cc(C(=O)O)cc5n4C[C@@H]4CCO4)CC3)c2)c(F)c1 [Compound 309]
14 | < 50 nM | CCn1cncc1Cn1c(CN2CCC(Cc3cccc(COc4ccc(Cl)cc4Cl)c3)CC2)nc2ccc(C(=O)O)cc21 [Compound 104, 2-{[4-({3-[(2,4-dichlorophenoxy)methyl]phenyl}methyl)piperidin-1-yl]methyl}-1-[(1-ethyl-1H-imidazol-5-yl)methyl]-1H-1,3-benzodiazole-6-carboxylic acid]
15 | < 50 nM | O=C(O)c1ccc2nc(CN3CCC(Oc4ccnc(COc5ccc(Cl)cc5F)c4)CC3)n(C[C@@H]3CCO3)c2c1 [Compound 250, 2-{[4-({2-[(4-chloro-2-fluorophenoxy)methyl]pyridin-4-yl}oxy)piperidin-1-yl]methyl}-1-{[(2S)-oxetan-2-yl]methyl}-1H-1,3-benzodiazole-6-carboxylic acid]
16 | < 50 nM | O=C(O)c1ccc2nc(CN3CCC(Oc4cccc(COc5ccc(Cl)cc5F)n4)CC3)n(C[C@@H]3CCO3)c2c1 [Compound 249, 2-{[4-({6-[(4-chloro-2-fluorophenoxy)methyl]pyridin-2-yl}oxy)piperidin-1-yl]methyl}-1-{[(2S)-oxetan-2-yl]methyl}-1H-1,3-benzodiazole-6-carboxylic acid]
17 | < 50 nM | O=C(O)c1ccc2nc(CN3CCC(Cc4cccc(OCc5ccc(Cl)cc5Cl)n4)CC3)n(C[C@@H]3CCO3)c2c1 [Compound 200, 2-{[4-({6-[(2,4-dichlorophenyl)methoxy]pyridin-2-yl}methyl)piperidin-1-yl]methyl}-1-{[(2S)-oxetan-2-yl]methyl}-1H-1,3-benzodiazole-6-carboxylic acid]
18 | < 50 nM | CCn1cncc1Cn1c(CN2CCC(Cc3cccc(COc4ccc(Cl)cc4C#N)c3)CC2)nc2ccc(C(=O)O)cc21 [Compound 165, 2-{[4-({3-[(4-chloro-2-cyanophenoxy)methyl]phenyl}methyl)piperidin-1-yl]methyl}-1-[(1-ethyl-1H-imidazol-5-yl)methyl]-1H-1,3-benzodiazole-6-carboxylic acid]
19 | < 50 nM | O=C(O)c1ccc2nc(CN3CCC(Cc4cnc(COc5ncc(C6CC6)cc5Cl)o4)CC3)n(C[C@@H]3CCO3)c2c1 [Example 136, (S)-2-((4-((2-(((3-Chloro-5-cyclopropylpyridin-2-yl)oxy)methyl)oxazol-5-yl)methyl)piperidin-1-yl)methyl)-1-(oxetan-2-ylmethyl)-1H-benzo[d]imidazole-6-carboxylic acid]
20 | 50 to 500 nM | CCn1cncc1Cn1c(CN2CCC([C@H](OC)c3cccc(COc4ccc(Cl)cc4Cl)c3)CC2)nc2ccc(C(=O)O)cc21 (single isomer, unassigned) [Example 205]
